In ChEMBL document CHEMBL1154109, “In vitro biological activity and structural analysis of 2,4-diamino-5-(2'-arylpropargyl)pyrimidine inhibitors of Candida albicans” (Bioorg Med Chem, 2009):
Values after ≈ are worked out from the molar mass of the structure shown. Active and inactive are the calls of the source. The calls are words filed in the database; no cut-off is given here.

Legend:
[1] = molecular target: T1, Dihydrofolate reductase (Candida albicans, UniProt P22906)
T1 sequence (P22906 whole entry): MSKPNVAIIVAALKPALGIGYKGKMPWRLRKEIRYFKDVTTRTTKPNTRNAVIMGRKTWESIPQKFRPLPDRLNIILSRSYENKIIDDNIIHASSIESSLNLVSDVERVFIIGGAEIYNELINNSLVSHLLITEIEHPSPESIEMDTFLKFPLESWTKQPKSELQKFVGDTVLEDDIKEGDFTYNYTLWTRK
Description: Inhibition of Candida albicans DHFR expressed in Escherichia coli BL21 (DE3) assessed as rate of NADPH consumption using dihydrofolate as substrate

[2] = system: Candida albicans
[3] = Cytotoxicity against human MCF10A cells after 4 hrs by alamar blue assay; conditions: MCF-10A
[4] = molecular target: T2, Dihydrofolate reductase (Homo sapiens, UniProt P00374)
T2 sequence (P00374 whole entry): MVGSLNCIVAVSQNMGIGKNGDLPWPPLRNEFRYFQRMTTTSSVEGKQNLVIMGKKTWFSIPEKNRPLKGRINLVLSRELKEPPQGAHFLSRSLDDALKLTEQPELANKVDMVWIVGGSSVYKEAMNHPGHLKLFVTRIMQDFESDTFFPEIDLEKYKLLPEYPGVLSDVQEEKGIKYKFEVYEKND
Description: Inhibition of human DHFR assessed as rate of NADPH consumption using dihydrofolate as substrate

[5] = system: Candida albicans; test: Antifungal activity against Candida albicans by alamar blue assay

| Structure (SMILES) | IC50 [1] [µM] | MIC [2] | further results |
| --- | --- | --- | --- |
| COc1cc(CC#Cc2cnc(N)nc2N)cc(OC)c1OC | 0.82 | inactive | – |
| COc1cc(C(O)C#Cc2cnc(N)nc2N)cc(OC)c1OC (racemic) | 11.9 | inactive | – |
| CCCc1nc(N)nc(N)c1C#CCc1cc(OC)ccc1OC | 0.045 | – | – |
| COc1ccc(OC)c(C(O)C#Cc2c(C)nc(N)nc2N)c1 (racemic) | 0.73 | – | – |
| COc1cc(-c2ccccc2C)cc(C(C)C#Cc2c(C)nc(N)nc2N)c1 (racemic) | 0.045 | – | – |
| COc1ccc(-c2cc(OC)cc(C(C)C#Cc3c(C)nc(N)nc3N)c2)cc1 (racemic) | 0.03 | – | – |
| CCc1nc(N)nc(N)c1C#CCc1cc(OC)c(OC)c(OC)c1 | 0.018 | – | – |
| CCc1nc(N)nc(N)c1C#CCc1cc(OC)ccc1OC | 0.1 | – | IC50 [3]: 63 µM |
| COc1cc(C(C#Cc2c(C)nc(N)nc2N)C(C)C)cc(OC)c1OC (racemic) | 0.033 | – | – |
| CCC(C#Cc1c(C)nc(N)nc1N)c1cc(OC)c(OC)c(OC)c1 (racemic) | 0.045 | – | IC50 [4]: 0.2 µM |
| COc1cc(-c2c(C)cccc2C)cc(C(C)C#Cc2c(C)nc(N)nc2N)c1 (racemic) | 0.045 | – | – |
| COc1cc(C(C)C#Cc2c(C)nc(N)nc2N)ccc1-c1c(C)cccc1C (racemic) | 0.032 | inactive | – |
| COc1cc(-c2ccc(C(C)(C)C)cc2)cc(C(C)C#Cc2c(C)nc(N)nc2N)c1 (racemic) | 0.034 | – | IC50 [3]: 50 µM |
| COc1cc(C(C#Cc2c(C)nc(N)nc2N)OC)cc(OC)c1OC (racemic) | 0.32 | inactive | – |
| COc1cc(-c2c(C(C)C)cccc2C(C)C)cc(C(C)C#Cc2c(C)nc(N)nc2N)c1 (racemic) | 0.038 | inactive | – |
| COc1cc(-c2ccccc2)cc([C@@H](C)C#Cc2c(C)nc(N)nc2N)c1 | 0.033 | – | – |
| COc1cc(C(C)C#Cc2c(C)nc(N)nc2N)cc(OC)c1OC (racemic) | 0.11 | – | – |

| Structure (SMILES) | IC50 [1] [µM] | MIC [2] | further results |
| --- | --- | --- | --- |
| COc1cc(C(C)C#Cc2c(C)nc(N)nc2N)ccc1-c1c(C(C)C)cccc1C(C)C (racemic) | 0.041 | inactive | – |
| COc1cc(-c2ccccc2)cc([C@H](C)C#Cc2c(C)nc(N)nc2N)c1 | 0.037 | – | – |
| COc1cc(-c2ccccc2)cc(C(O)C#Cc2c(C)nc(N)nc2N)c1 (racemic) | 0.091 | inactive | – |
| COc1cc(C(C#Cc2cnc(N)nc2N)OC)cc(OC)c1OC (racemic) | 2.5 | inactive | – |
| COc1cc(-c2ccccc2)cc(C(C)C#Cc2c(C)nc(N)nc2N)c1 (racemic) | – | – | MIC [5]: 90 µg/mL (≈ 251 µM) |
| COc1cc(CC#Cc2c(C)nc(N)nc2N)cc(-c2c(C)cccc2C)c1 | 0.055 | – | – |
| COc1ccc(OC)c(C(C)C#Cc2c(C)nc(N)nc2N)c1 (racemic) | 0.048 | – | IC50 [4]: 0.4 µM |
| COc1cc(C(O)C#Cc2c(C)nc(N)nc2N)cc(OC)c1OC (racemic) | 0.98 | inactive | IC50 [3]: 1000 µM |
| COc1cc(C(C)C#Cc2cnc(N)nc2N)cc(OC)c1OC (racemic) | 0.18 | inactive | – |
| COc1ccc(OC)c(C(C#Cc2c(C)nc(N)nc2N)OC)c1 (racemic) | 0.55 | inactive | IC50 [4]: 0.06 µM |
| COc1cc(C(C)C#Cc2c(C)nc(N)nc2N)ccc1-c1ccccc1 (racemic) | 0.055 | – | IC50 [3]: 80 µM |
| COc1cc(-c2ccc(C)cc2)cc(C(C)C#Cc2c(C)nc(N)nc2N)c1 (racemic) | 0.022 | – | – |
| COc1cc(-c2cc(C)cc(C)c2)cc(C(C)C#Cc2c(C)nc(N)nc2N)c1 (racemic) | 0.017 | – | – |
| COc1ccc(OC)c(CC#Cc2c(C)nc(N)nc2N)c1 | 0.41 | – | – |
| COc1cc(CC#Cc2c(C)nc(N)nc2N)cc(OC)c1OC | 0.18 | inactive | – |
| COc1ccc(OC)c(CC#Cc2cnc(N)nc2N)c1 | 1.4 | – | – |
| CCc1nc(N)nc(N)c1C#CC(C)c1cc(OC)c(OC)c(OC)c1 (racemic) | 0.02 | – | – |
